From publication PMC4957076, “Shared mechanism of teratogenicity of anti-angiogenic drugs identified in the chicken embryo model” (Scientific Reports, 2016)
Read-outs that look alike come from different tables or passages of the source.

Assays:
HUVEC cells = test: Endothelial cell proliferation assay (CCK-8); format: cell-based, Human; conditions: 18 hours exposure, CCK-8 assay, n = 9
Experimental: Anti-angiogenic drugs were screened in a concentration gradient in the HUVEC culture assay. […] Cell proliferation was assessed using a CCK-8 assay (Dojindo). Statistical analysis by two-way Anova. Error represents the standard error of the mean.
HUVEC cells were purchased from ATCC (Manassas, VA) and cultured as previously described. No further authentication was performed. Cells were seeded at 6.5 × 10^4 cells per well in 100 μL of medium per well. Drugs were diluted in prewarmed DMEM. Serial dilutions were performed from 1000–0.1 nM. The cells were left to grow for 18 hours with exposure to vehicle control (DMSO) or drugs. Experiments were done in triplicate each time. Cellular proliferation was assessed using a CCK-8 assay (Dojindo, Rockville, MD). All plates were read at 450 nm.

Rat = conditions: cited from earlier work; for Systemic exposure (AUC) compared to human exposure: exposure at which defects were produced
[1] = system: fli1:EGFP zebrafish embryos; test: fli1:EGFP zebrafish embryo exposure: survival and intersegmental vessel development; format: in vivo; conditions: for survival: 24 hours after exposure; for relative potency in reducing vessel outgrowth: concentration gradient, within 24 hours of drug exposure
Experimental: We then examined the extent and nature of the anti-angiogenic effects of the compounds using transgenic fli1:EGFP zebrafish embryos. The vasculature of these fish is tagged with EGFP and the transparency of the zebrafish allows for visualization of the forming blood vessels and any effect of anti-cancer drugs on their development over time (Fig. 4). A known anti-angiogenic and teratogenic compound (CPS49) was screened alongside the drugs as a positive control at 10 μg/mL (30 μM), a previously established anti-angiogenic concentration.
fli1:EGFP zebrafish were obtained from the Zebrafish international Resource Centre[29] and maintained in an approved aquarium habitat at 28 °C. At 24 hours post fertilization (hpf) the embryos were checked for GFP expression using a fluorescent microscope and manually dechorionated with forceps, exposed to either a vehicle control, or an anti-angiogenic anti-cancer compound (at 24 hpf) for 24 hours and imaged at 48 hpf. At this point the embryos were anaesthetized in 0.1% tricaine and the length and number of intersegmental vessels (ISV) were quantified as previously described. A minimum of 10 embryos were screened per drug, per concentration, and experiments were performed in triplicate.

chicken embryos [2] = conditions: for survival rate: 48 hours post drug application
Experimental: We then administered the compounds to developing chicken embryos to observe any teratogenic effects. […] At 48 hours post drug application both the survival rate and the incidence of defects were analyzed. A range of concentrations was tested to determine the effects and optimal concentration that was not 100% lethal.
Fertilized white leghorn chicken embryos purchased from Henry Stewart Ltd. (Herefordshire, United Kingdom) were maintained in an incubator as described previously. At Hamburger and Hamilton stage 18–20 (E2.5-3)[54] the eggs were windowed and the embryos were prepared for drug exposure. To establish a dose response the drugs were applied once to the embryos and growth was monitored as described previously. In a second set of experiments, filter paper squares were cut 100 μm × 100 μm and soaked in the compound of interest for 10 minutes. While the filter paper squares absorbed the solution, embryonic membranes were removed and the sponge was then placed onto the limb bud. The eggs were sealed with tape and returned to an incubator. The embryos were checked daily for developmental defects and to ensure the filter paper squares remained in place. Control embryos were treated with 100 μL PBS with 0.1% DMSO. Embryos were removed from the eggs and fixed in 5% TCA at 4 degrees for 24 hours. Embryos were then washed in alcian blue for 8 hours, and placed in acid ethanol over night before being dehydrated in 100% ethanol for three one hour treatments. The tissue was then cleared in methyl salicylate. Cartilage was imaged and subsequently measured using a graticule scale and ImageJ. A minimum of 8 embryos was used per drug, per concentration. All animal work was licensed and carried out in accordance with and with approval of UK Home Office and Institutional ethical and welfare guidelines.

Rabbit = conditions: cited from earlier work; for Systemic exposure (AUC) compared to human exposure: exposure at which defects were produced
[3] = human; cited from earlier work
Mouse = conditions: cited from earlier work
[4] = system: Mouse (strain specific) Rabbit; design: method as in PMID 11006136; conditions: cited from earlier work
chicken embryos [5] = conditions: cited from earlier work
[6] = 2.5 μg/embryo, global treatment

Row | Molecule | IC50 (HUVEC cells; Homo sapiens) | Defects produced (Rat; Rat) | Systemic exposure (AUC) compared to human exposure (Rat; Rat) | survival ([1]; 10 μg/mL) | survival ([1]; 50 μg/mL) | survival ([1]; 100 μg/mL) | relative potency in reducing vessel outgrowth [1] | survival rate (chicken embryos [2]; 5 μg/embryo, global treatment) | survival rate (chicken embryos [2]; 10 μg/embryo, global treatment) | Defects produced in chicken embryos (chicken embryos [2]; in vivo) | Defects produced (Rabbit; Rabbit) | Systemic exposure (AUC) compared to human exposure (Rabbit; Rabbit) | Clinical Toxicities [3] | Defects produced in chicken embryos (chicken embryos [2]; Table 1 summary) | defects observed in treated embryos (chicken embryos [2]; in vivo) | other results
1 | CNC(=O)c1cc(Oc2ccc(NC(=O)Nc3ccc(Cl)c(C(F)(F)F)c3)cc2)ccn1 [Sorafenib, sorafenib] | < 0.05 µM | Increased post implantation loss, resorptions, skeletal retardations, retarded fetal weight | 0.008× | 18.18% | 15.38% | No embryos survived | most potent | 54.5% | 47% | Embryolethality increased, limb, growth inhibition, necrosis of YSM | Increased post implantation loss, resorptions, skeletal retardations, retarded fetal weight | 0.008× | Cardiotoxicity | – | – | –
2 | bevacizumab | – | – | – | – | – | – | – | – | – | – | – | – | – | – | – | embryotoxicity in rats (Rat; rat, in vivo): embryotoxicity; placental transfer in rats (Rat; rat, in vivo): dose-dependent placental transfer; teratogenicity in rabbits (Rabbit; rabbit, in vivo, iv): teratogenicity
3 | COc1cc2c(Nc3ccc(Br)cc3F)ncnc2cc1OCC1CCN(C)CC1 [Vandetanib, vandetanib] | – | Increased pre- & post-implantation loss, malformations of heart vessels, skeletal variations, delayed ossification of the skull, vertebrae & sternum. | – | 60% | 15.38% | 10% | least potent | no death occurred | 74% | – | – | – | Cardiotoxicity | Embryolethality increased, limb, spine, microopthalmia, necrosis of YSM | limb reductions, micropthalmia, twisted spinal cords, and necrosis and hemorrhaging in the YSM | –
4 | CNC(=O)c1ccccc1Sc1ccc2c(/C=C/c3ccccn3)n[nH]c2c1 [Axitinib, axitinib] | – | – | – | 40% | 42.12% | 38.89% | – | no embryos survived | – | – | – | – | Cardiotoxicity | Embryolethality increased, limb, growth inhibition, necrosis of YSM | – | Systemic exposure (AUC) compared to human exposure (Mouse; Mouse/Mice): 10×; Defects produced (Mouse; mouse, in vivo): Increased post implantation loss, cleft palate malformation, variation in skeletal ossification; survival rate (chicken embryos [2]; [6]): 55.5%; defects observed in treated embryos (chicken embryos [2]; global treatment, surviving embryos): most embryos exhibited necrosis within the surrounding YSM and hemorrhaging
5 | O=C1CCC(N2C(=O)c3ccccc3C2=O)C(=O)N1 (stereo not shown) [Thalidomide, thalidomide] | – | – | – | – | – | – | – | – | – | – | – | – | Somnolence, constipation, neuropathy, venous thromboembolism and rash/unknown | – | – | Defects produced [4]: Increased resorptions, embryotoxicity, eye defects; Systemic exposure (AUC) compared to human exposure [4]: At recommended human dose/Not applicable; Defects produced in chicken embryos (chicken embryos [5]; thalidomide not tested in this paper): Embryolethality, cranial hemorrhaging, micropthalmia, limb defects, spine
6 | Cc1ccc(Nc2nccc(N(C)c3ccc4c(C)n(C)nc4c3)n2)cc1S(N)(=O)=O [Pazopanib, pazopanib] | – | Teratogenic, embryotoxic, fetotoxic & abortifacient. Cardiovascular malformations, incomplete/absent ossification, reduced fetal body weight, pre- and post-implantation embryolethality | 0.1× | did not affect the survival | 83.33% | 50% | most potent | 30% | – | – | Increased post-implantation loss, abortion, 100% litter loss | 0.02× | Cardiotoxicity | Embryolethality increased, limb, spine, necrosis of YSM | malformation of the blood vessels and necrosis in the YSM, and twisted spinal cords | IC50, endothelial cell proliferation (HUVEC cells): one of the highest IC50s in vitro; survival rate (chicken embryos [2]; 1 μg/embryo, global treatment): 16%; survival rate (chicken embryos [2]; [6]): 22%
7 | Nc1cccc2c1C(=O)N(C1CCC(=O)NC1=O)C2=O (stereo not shown) [pomalidomide] | – | – | – | – | – | – | – | – | – | – | – | – | – | – | – | teratogenicity in chicken embryos (chicken embryos [5]; at potent anti-inflammatory doses): not teratogenic
8 | O=C1c2c(F)c(F)c(F)c(F)c2C(=O)N1c1ccc(F)cc1F [CPS49] | – | – | – | 50% | – | – | – | – | – | – | – | – | – | Embryolethality, cranial hemorrhaging, micropthalmia, limb defects, spine | – | IC50 (HUVEC cells): < 0.05 µM; anti-angiogenic activity in chicken embryo (chicken embryos [5]; 10 μg/embryo): potent anti-angiogenic activity; blood vessel outgrowth and number of forming vessels ([1]; 10 μg/mL (30 μM), versus vehicle control 0.1% DMSO): significant reduction in both blood vessel outgrowth and the number of forming vessels
9 | CO[C@H]1C[C@@H]2CC[C@@H](C)[C@@](O)(O2)C(=O)C(=O)N2CCCC[C@H]2C(=O)O[C@H]([C@H](C)C[C@@H]2CC[C@@H](OCCO)[C@H](OC)C2)CC(=O)[C@H](C)/C=C(\C)[C@@H](O)[C@@H](OC)C(=O)[C@H](C)C[C@H](C)/C=C/C=C/C=C/1C [Everolimus, everolimus] | < 0.01 µM | Increased resorption, pre- and post-implantation loss, decreased numbers of live fetuses, malformation and retarded skeletal development | 0.04× | did not impact the survival | did not impact the survival | 35.71% | least potent | 80% | 62.5% | Embryolethality increased, limb, spine, microopthalmia, necrosis of YSM | Increased resorptions | 1.6× | Stomatitis, noninfectious pneumonitis, rash, hyperglycemia and immunosuppression | – | hemorrhaging, spinal cord twisting and necrosis in the YSM | –
10 | CCN(CC)CCNC(=O)c1c(C)[nH]c(/C=C2\C(=O)Nc3ccc(F)cc32)c1C [Sunitinib, sunitinib] | < 0.01 µM | – | 5.5× | 61.90% | 21.05% | 0% | most potent | 72% | – | Embryolethality increased, limb, spinal, microopthalmia, growth inhibition, necrosis of YSM | – | 0.3× | Cardiotoxicity | – | in most embryos limb defects were observed, some also exhibited microopthalmia and spinal cord twisting | Defects produced (Rat; rat, in vivo): Embryolethality increased, fetal skeletal malformations (ribs/vertebrae); Defects produced (Rabbit; rabbit, in vivo): Increased embryolethality, cleft palate malformations
